Experimental findings from paper PMC9563204, “Mass Spectrometry and Machine Learning Reveal Determinants of Client Recognition by Antiamyloid Chaperones” (Molecular & Cellular Proteomics : MCP, 2022) are described below.

In the assay the target is TTR (transthyretin) (Homo sapiens, UniProt P02766). The experiment in a line: native MS of Aβ([…]) binding to TTR with and without tafamidis. To be noted: TTR tetramer coincubated with Aβ(12–28) and tafamidis, overnight, room temperature; indirect read-out (tetramer stabilization).

Regarding `O=C(O)c1ccc2nc(-c3cc(Cl)cc(Cl)c3)oc2c1` [tafamidis], the “native MS of Aβ(12-28) binding to TTR with and without tafamidis” value is listed as “In the presence of tafamidis, we observed a clear decrease in Aβ binding to TTR”.
